The source made the active and inactive calls. The rule behind the calls is not given here.
How the values were obtained:
[1] = target: T1, Dual specificity mitogen-activated protein kinase kinase; MEK1/2 (Homo sapiens) (UniProt P36507+Q02750); conditions: 10 uM
Description: Inhibition of MEK1/2 in human PANC1 cells assessed as decrease in phosphorylated levels of MEK at S217/221 at 10 uM incubated for 24 hrs by Western blotting analysis

PANC-1 [2] = assay: Antiproliferative activity against human PANC1 cells incubated for 72 hrs by MTT assay; format: functional, cell-based; conditions: PANC-1, 72 h
DU-145 = assay: Antiproliferative activity against human DU145 cells incubated for 72 hrs by MTT assay; format: functional, cell-based; conditions: DU-145, 72 h
[3] = Antiproliferative activity against human MCF cells incubated for 72 hrs by MTT assay; format: functional, cell-based
HepG2 = assay: Antiproliferative activity against human HepG2 cells incubated for 72 hrs by MTT assay; format: functional, cell-based; conditions: HepG2, 72 h
HCT-116 = assay: Antiproliferative activity against human HCT116 cells incubated for 72 hrs by MTT assay; format: functional, cell-based; conditions: HCT-116, 72 h
A549 = assay: Antiproliferative activity against human A549 cells incubated for 72 hrs by MTT assay; format: functional, cell-based; conditions: A549, 72 h
[4] = target: T1, Dual specificity mitogen-activated protein kinase kinase; MEK1/2 (Homo sapiens); assay: Inhibition of MEK1/2 in human PANC1 cells assessed as decrease in phosphorylated levels of MEK at S217/221 at 5 uM incubated for 24 hrs by Western blotting analysis; format: cell-based
PANC-1 [5] = assay: Induction of apoptosis in human PANC1 cells assessed as increase in cleaved PARP level incubated for 24 hrs by Western blot analysis; format: functional, cell-based
PANC-1 [6] = assay: Inhibition of colony formation in human PANC1 cells incubated for 14 days by crystal violet staining based assay; format: functional, cell-based
[7] = target: T1, Dual specificity mitogen-activated protein kinase kinase; MEK1/2 (Homo sapiens); assay: Inhibition of MEK1/2 in human PANC1 cells assessed as decrease in phosphorylated levels of ERK(T202/Y204) in nuclear fraction at 5 uM incubated for 24 hrs by Western blotting analysis; format: cell-based
[8] = target: T1, Dual specificity mitogen-activated protein kinase kinase; MEK1/2 (Homo sapiens); assay: Inhibition of MEK1/2 in human PANC1 cells assessed as decrease in phosphorylated levels of ERK(T202/Y204) at 5 uM incubated for 24 hrs by Western blotting analysis; format: cell-based
PANC-1 [9] = assay: Induction of apoptosis in human PANC1 cells assessed as increase in cleaved caspase-3 level incubated for 24 hrs by Western blot analysis; format: functional, cell-based

T1 sequence (P36507 whole entry, looked up): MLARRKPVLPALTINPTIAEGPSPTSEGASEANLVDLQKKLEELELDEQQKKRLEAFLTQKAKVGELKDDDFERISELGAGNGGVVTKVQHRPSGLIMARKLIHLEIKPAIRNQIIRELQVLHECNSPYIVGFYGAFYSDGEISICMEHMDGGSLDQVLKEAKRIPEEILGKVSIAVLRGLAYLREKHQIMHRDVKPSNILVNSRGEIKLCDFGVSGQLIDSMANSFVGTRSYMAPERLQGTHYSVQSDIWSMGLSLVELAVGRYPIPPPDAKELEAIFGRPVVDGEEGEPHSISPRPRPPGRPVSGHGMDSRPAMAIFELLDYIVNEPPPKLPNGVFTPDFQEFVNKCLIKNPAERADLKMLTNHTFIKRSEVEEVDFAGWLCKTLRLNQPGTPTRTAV
T1 sequence (Q02750 whole entry, looked up): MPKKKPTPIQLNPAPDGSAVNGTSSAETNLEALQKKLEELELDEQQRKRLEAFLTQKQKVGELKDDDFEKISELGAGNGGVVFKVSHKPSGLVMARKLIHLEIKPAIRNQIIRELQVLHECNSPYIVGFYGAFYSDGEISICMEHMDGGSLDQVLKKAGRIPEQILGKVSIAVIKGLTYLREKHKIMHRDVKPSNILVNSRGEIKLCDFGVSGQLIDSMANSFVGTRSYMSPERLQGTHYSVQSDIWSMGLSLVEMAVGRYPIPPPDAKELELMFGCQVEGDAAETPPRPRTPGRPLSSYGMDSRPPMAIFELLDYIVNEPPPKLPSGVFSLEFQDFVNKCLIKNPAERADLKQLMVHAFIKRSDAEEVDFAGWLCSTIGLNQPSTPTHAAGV

COc1cccc(-c2cc(=O)c3ccccc3o2)c1N
inhibition [1]: Active

CC(C)=CCc1c(O)cc(O)c2c1C(=O)c1c(O)c(Cl)c(C)c(Cl)c1OC2 [PESTALACHLORIDE B]
IC50 (PANC-1 [2]): > 50 µM

COc1cc(C)c(Cl)c(O)c1C(=O)c1c(C=O)c(O)cc(O)c1CC=C(C)C
IC50 (DU-145): 21 µM | IC50 [3]: 11 µM | IC50 (HepG2): 37 µM | IC50 (HCT-116): 10 µM | IC50 (PANC-1 [2]): 14 µM | IC50 (A549): 14 µM

CC(C)=CCc1c(O)cc(O)c(C=O)c1C(=O)c1c(O)cc(C)c(Br)c1O
inhibition [4]: Active | Activity (PANC-1 [5]): Dose-dependent effect | inhibition (PANC-1 [6]): Dose-dependent effect | inhibition [7]: Active | IC50 (PANC-1 [2]): 7.6 µM | inhibition [8]: Active | Activity (PANC-1 [9]): Dose-dependent effect

COc1cc(C)c(Br)c(O)c1C(=O)c1c(C=O)c(O)cc(O)c1CC=C(C)C
IC50 (PANC-1 [2]): 26 µM

CC(C)=CCc1c(O)cc(O)c(C=O)c1C(=O)c1c(O)cc(C)c(Cl)c1O
IC50 (DU-145): 14 µM | inhibition [4]: Active | IC50 [3]: 7.5 µM | Activity (PANC-1 [5]): Dose-dependent effect | inhibition (PANC-1 [6]): Dose-dependent effect | IC50 (HepG2): 23 µM | inhibition [7]: Active | IC50 (HCT-116): 5.5 µM | IC50 (PANC-1 [2]): 7.2 µM | inhibition [8]: Active | IC50 (A549): 7.8 µM | Activity (PANC-1 [9]): Dose-dependent effect

O=c1[nH]cc(F)c(=O)[nH]1 [FLUOROURACIL]
IC50 (DU-145): 2.5 µM | IC50 [3]: 11 µM | IC50 (HepG2): 2.5 µM | IC50 (PANC-1 [2]): 15 µM

COc1c(Cl)c(C)c(Cl)c(O)c1C(=O)c1c(C=O)c(O)cc(O)c1CC=C(C)C [PESTALONE]
IC50 (PANC-1 [2]): 14 µM

— ChEMBL document CHEMBL4321870, “Benzophenone Compounds, from a Marine-Derived Strain of the Fungus Pestalotiopsis neglecta, Inhibit Proliferation of Pancreatic Cancer Cells by Targeting the MEK/ERK Pathway” (J Nat Prod, 2019)
